The results in this text go back to patent US8642629B2, “Naphthylacetic acids” (Hoffmann-La Roche Inc., priority 2008, dated 2014).

For orientation: IC50 means the concentration that inhibits the measured activity by half.

Assay [1] concerns the target T1, human CRTH2 (Homo sapiens, UniProt Q9Y5Y4).
T1 construct: expressed in transfected cells; host or cells: CHO-K1
T1 sequence (Q9Y5Y4 1-395): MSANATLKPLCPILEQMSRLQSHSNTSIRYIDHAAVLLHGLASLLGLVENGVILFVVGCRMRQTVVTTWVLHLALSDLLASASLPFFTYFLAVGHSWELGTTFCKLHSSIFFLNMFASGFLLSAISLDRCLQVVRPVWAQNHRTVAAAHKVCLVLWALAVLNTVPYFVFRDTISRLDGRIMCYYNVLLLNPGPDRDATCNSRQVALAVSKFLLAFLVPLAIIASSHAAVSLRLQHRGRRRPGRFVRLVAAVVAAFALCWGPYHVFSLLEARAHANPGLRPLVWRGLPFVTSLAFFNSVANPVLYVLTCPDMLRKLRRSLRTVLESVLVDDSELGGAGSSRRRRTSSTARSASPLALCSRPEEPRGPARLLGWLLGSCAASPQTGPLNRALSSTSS
In words: Calcium Flux Assay Using Fluorometric Imaging Plate Reader (FLIPR). The following applies: CHO-K1 cells transfected with G-alpha 16 and human CRTH2; inhibition of ligand (DK-PGD2) response. It counts as cell-based. The protocol:
CHO-K1 cells previously transfected with G-alpha 16 were subsequently transfected with the human CRTH2 receptor and the neomycin resistance gene. Following selection in 800 μg/mL G418 (geneticin), individual clones were assayed for their receptor expression based on staining with an anti human CRTH2 IgG, followed by assaying for their response to 13,14-dihydro-15-keto Prostaglandin D2 (DK-PDG2) (ligand) in the Ca^2+ Flux assay. Positive clones were then cloned by limiting dilution cloning. […] Cells were harvested with trypsin-EDTA (trypsin-ethylenediaminetetraacetic acid) and counted using ViaCount® reagent (from Guava Technologies, Inc. which contains two DNA-binding dyes that enable the reagent user to distinguish between viable and non-viable cells). […]
After incubation, both the cell and “assay plate” plates were brought to the fluorometric imaging plate reader (FLIPR®) and 20 μL of the diluted compounds were transferred to the cell plates by the FLIPR®. […] During the assay, fluorescence readings were taken simultaneously from all 384 wells of the cell plate every 1.5 seconds. Five readings were taken to establish a stable baseline, then 20 μL of sample was rapidly (30 μL/sec) and simultaneously added to each well of the cell plate. The fluorescence was continuously monitored before, during and after sample addition for a total elapsed time of 100 seconds. […]
(In general: A change in cytosolic calcium serves as a functional read-out for many receptors and channels.)

Assay [2] addresses T1, human CRTH2. In words: Human CRTH2 Receptor Binding Assay (whole cell, [3H]ramatroban competition). The settings on record: CHO-K1 cells expressing human CRTH2 and G-alpha16; 20 nM [3H]ramatroban; 1 hour, room temperature. A digest of the protocol:
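Whole CHO-K1 cells stably expressing human CRTH2 and G-alpha16 were incubated with 20 nM [3H]ramatroban and compound for 1 h at room temperature in PBS with 10 mM MgCl2 and 0.06% BSA, then filtered and counted. Non-specific binding was defined with 10 μM 15(R)-15-methyl PGD2, and IC50 was fitted by 4-parameter logistic from 7 concentrations.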

As for `CCS(=O)(=O)c1ccc(Oc2c(C)c(CCC(=O)O)cc3ccc(F)cc23)cc1` [Example 7-1, 3-[4-(4-ethanesulfonyl-phenoxy)-6-fluoro-3-methyl-naphthalen-2-yl]-propionic acid], the IC50 in assay [1] was 4200 nM; in assay [2] it was 130 nM. Turning to `CCS(=O)(=O)c1ccc(Oc2cc(CC(=O)O)cc3ccc(F)cc23)cc1` [Example 1-1, [4-(4-ethanesulfonyl-phenoxy)-6-fluoro-naphthalen-2-yl]-acetic acid], the IC50 is 5000 nM in assay [1] and 2.3 nM in assay [2].

`CCS(=O)(=O)c1ccc(Oc2c(C)c(CC(=O)O)cc3ccc(F)cc23)c(C)c1` [Example 2-10, [4-(4-ethanesulfonyl-2-methyl-phenoxy)-6-fluoro-3-methyl-naphthalen-2-yl]-acetic acid] gave a half-inhibitory concentration (IC50) in assay [2] of 7.3 nM. With `CS(=O)(=O)c1ccc(Oc2cc(CC(=O)O)cc3ccc(F)cc23)cc1` [Example 1-2, [6-fluoro-4-(4-methanesulfonyl-phenoxy)-naphthalen-2-yl]-acetic acid], the IC50 in assay [2] came out at 3.1 nM.

For the molecule `CCS(=O)(=O)c1ccc(Oc2c(C)c(CC(=O)O)cc3ccc(F)cc23)cc1` [Example 2-1, [4-(4-ethanesulfonyl-phenoxy)-6-fluoro-3-methyl-naphthalen-2-yl]-acetic acid], the IC50 in assay [2] was found to be 3.2 nM. The molecule `CCN(CC)S(=O)(=O)c1ccc(Oc2c(C)c(CC(=O)O)cc3ccc(F)cc23)cc1` [Example 2-39, [4-(4-diethylsulfamoyl-phenoxy)-6-fluoro-3-methyl-naphthalen-2-yl]-acetic acid] returned an IC50 in assay [2] of 2 nM.
